In ChEMBL document CHEMBL3396992, “Synthesis and biological evaluation of pyrazolylthiazole carboxylic acids as potent anti-inflammatory-antimicrobial agents” (2015):
Values after ≈ are worked out from the molar mass of the structure shown. Active and inactive are the calls of the source. The rule behind the calls is not given here.

Legend:
Staphylococcus aureus [1] = assay: Antimicrobial activity against Staphylococcus aureus MTCC 96 assessed as growth inhibition at 4 mg/ml after 24 hrs by agar well diffusion method; type: functional; settings: for zone of inhibition at 4000 µg/mL: MTCC 96, 24 h, read-out: DIZ
Bacillus subtilis [2] = assay: Antimicrobial activity against Bacillus subtilis MTCC 121 assessed as growth inhibition at 4 mg/ml after 24 hrs by agar well diffusion method; type: functional; settings: for zone of inhibition at 4000 µg/mL: MTCC 121, 24 h, read-out: DIZ
Bacillus subtilis [3] = assay: Antimicrobial activity against Bacillus subtilis MTCC 121 assessed as growth inhibition after 24 hrs by agar well diffusion method; type: functional
Pseudomonas aeruginosa [4] = assay: microbe, parasite or virus in culture; settings: MTCC 741, 24 h, read-out: DIZ
Description: (§1) Antimicrobial activity against Pseudomonas aeruginosa MTCC 741 assessed as growth inhibition at 4 mg/ml after 24 hrs by agar well diffusion method

Rattus norvegicus [5] = assay: Antiinflammatory activity against carrageenan-induced paw edema male Wistar albino rat assessed as edema volume at 50 mg/kg, po administered 30 mins prior to carrageenan-challenge measured after 1 hr (reference value: 1.11 +/- 0.12 mL); type: functional
Rattus norvegicus [6] = assay: Antiinflammatory activity against carrageenan-induced paw edema male Wistar albino rat at 50 mg/kg, ip administered 30 mins prior to carrageenan-challenge measured after 3 hrs relative to control; type: functional; settings: route intraperitoneal
Candida albicans [7] = assay: Antimicrobial activity against Candida albicans MTCC 3017 assessed as growth inhibition at 4 mg/ml after 24 hrs by agar well diffusion method; type: functional; settings: MTCC 3017, 24 h, read-out: DIZ
Rattus norvegicus [8] = assay: Antiinflammatory activity against carrageenan-induced paw edema male Wistar albino rat at 50 mg/kg, ip administered 30 mins prior to carrageenan-challenge measured after 1 hr relative to control; type: functional; settings: route intraperitoneal
Rattus norvegicus [9] = assay: Antiinflammatory activity against carrageenan-induced paw edema male Wistar albino rat at 50 mg/kg, ip administered 30 mins prior to carrageenan-challenge measured after 2 hrs relative to control; type: functional; settings: route intraperitoneal
Rattus norvegicus [10] = assay: Antiinflammatory activity against carrageenan-induced paw edema male Wistar albino rat assessed as edema volume at 50 mg/kg, ip administered 30 mins prior to carrageenan-challenge measured after 2 hrs (reference value: 1.21 +/- 0.16 mL); type: functional; settings: route intraperitoneal
Rattus norvegicus [11] = assay: Antiinflammatory activity against carrageenan-induced paw edema male Wistar albino rat assessed as edema volume at 50 mg/kg, ip administered 30 mins prior to carrageenan-challenge measured after 3 hrs (reference value: 1.73 +/- 0.09 mL); type: functional; settings: route intraperitoneal
Staphylococcus aureus [12] = assay: Antimicrobial activity against Staphylococcus aureus MTCC 96 assessed as growth inhibition after 24 hrs by agar well diffusion method; type: functional
Saccharomyces cerevisiae [13] = assay: Antimicrobial activity against Saccharomyces cerevisiae MTCC 170 assessed as growth inhibition at 4 mg/ml after 24 hrs by agar well diffusion method; type: functional; settings: for zone of inhibition at 4000 µg/mL: MTCC 170, 24 h, read-out: DIZ
Pseudomonas aeruginosa [14] = settings: MTCC 741, 4 mg/ml
Description: as §1

Saccharomyces cerevisiae [15] = assay: Antimicrobial activity against Saccharomyces cerevisiae MTCC 170 assessed as growth inhibition after 24 hrs by agar well diffusion method; type: functional
Rattus norvegicus [16] = assay: Antiinflammatory activity against carrageenan-induced paw edema male Wistar albino rat assessed as edema volume at 50 mg/kg, ip administered 30 mins prior to carrageenan-challenge measured after 4 hrs (reference value: 1.88 +/- 0.20 mL); type: functional; settings: route intraperitoneal
Escherichia coli = assay: Antimicrobial activity against Escherichia coli MTCC 1652 assessed as growth inhibition at 4 mg/ml after 24 hrs by agar well diffusion method; type: functional, organism-based
Rattus norvegicus [17] = assay: Antiinflammatory activity against carrageenan-induced paw edema male Wistar albino rat at 50 mg/kg, ip administered 30 mins prior to carrageenan-challenge measured after 4 hrs relative to control; type: functional; settings: route intraperitoneal
Candida albicans [18] = assay: Antimicrobial activity against Candida albicans MTCC 3017 assessed as growth inhibition after 24 hrs by agar well diffusion method; type: functional; settings: MTCC 3017, 24 h
Rattus norvegicus [19] = assay: Antiinflammatory activity against carrageenan-induced paw edema male Wistar albino rat assessed as edema volume at 10 mg/kg, ip administered 30 mins prior to carrageenan-challenge measured after 3 hrs (reference value: 1.73 +/- 0.09 mL); type: functional; settings: route intraperitoneal
Rattus norvegicus [20] = assay: Antiinflammatory activity against carrageenan-induced paw edema male Wistar albino rat assessed as edema volume at 10 mg/kg, ip administered 30 mins prior to carrageenan-challenge measured after 2 hrs (reference value: 1.21 +/- 0.16 mL); type: functional; settings: route intraperitoneal
Rattus norvegicus [21] = assay: Antiinflammatory activity against carrageenan-induced paw edema male Wistar albino rat assessed as edema volume at 10 mg/kg, ip administered 30 mins prior to carrageenan-challenge measured after 1 hr (reference value: 1.11 +/- 0.12 mL); type: functional; settings: route intraperitoneal
Rattus norvegicus [22] = assay: Antiinflammatory activity against carrageenan-induced paw edema male Wistar albino rat at 10 mg/kg, ip administered 30 mins prior to carrageenan-challenge measured after 3 hrs relative to control; type: functional; settings: route intraperitoneal
Rattus norvegicus [23] = assay: Antiinflammatory activity against carrageenan-induced paw edema male Wistar albino rat at 10 mg/kg, ip administered 30 mins prior to carrageenan-challenge measured after 4 hrs relative to control; type: functional; settings: route intraperitoneal
Rattus norvegicus [24] = assay: Antiinflammatory activity against carrageenan-induced paw edema male Wistar albino rat at 10 mg/kg, ip administered 30 mins prior to carrageenan-challenge measured after 1 hr relative to control; type: functional; settings: route intraperitoneal
Rattus norvegicus [25] = assay: Antiinflammatory activity against carrageenan-induced paw edema male Wistar albino rat assessed as edema volume at 10 mg/kg, ip administered 30 mins prior to carrageenan-challenge measured after 4 hrs (reference value: 1.88 +/- 0.20 mL); type: functional; settings: route intraperitoneal
Rattus norvegicus [26] = assay: Antiinflammatory activity against carrageenan-induced paw edema male Wistar albino rat at 10 mg/kg, ip administered 30 mins prior to carrageenan-challenge measured after 2 hrs relative to control; type: functional; settings: route intraperitoneal

SMILES | zone of inhibition at 4000 µg/mL (Staphylococcus aureus [1]) | zone of inhibition at 4000 µg/mL (Bacillus subtilis [2]) | MIC (Bacillus subtilis [3]; MTCC 121, 24 h) | Activity (Rattus norvegicus [5]) | diameter of the inhibition zone (DIZ) (Staphylococcus aureus [1]) | Activity (Rattus norvegicus [6]) | zone of inhibition at 4000 µg/mL (Candida albicans [7]) | Activity (Rattus norvegicus [8]) | Activity (Rattus norvegicus [9]) | Activity (Rattus norvegicus [10]) | Activity (Rattus norvegicus [11]) | MIC (Staphylococcus aureus [12]) | DIZ (Pseudomonas aeruginosa [14]) | Activity (Rattus norvegicus [16]) | diameter of the inhibition zone (DIZ) (Escherichia coli) | Activity (Rattus norvegicus [17]) | MIC (Candida albicans [18]) | MIC (Staphylococcus aureus [12]; MTCC 96, 24 h) | zone of inhibition at 4000 µg/mL (Saccharomyces cerevisiae [13]) | MIC (Saccharomyces cerevisiae [15]; MTCC 170, 24 h) | other results
O=C(O)c1cn(C2CC2)c2cc(N3CCNCC3)c(F)cc2c1=O [CIPROFLOXACIN] | 24 mm | 24 mm | 6.25 mg/L (≈ 18.9 µM) |  |  |  |  |  |  |  |  |  |  |  |  |  |  |  |  |  | zone of inhibition at 4000 µg/mL (Pseudomonas aeruginosa [4]): 22 mm
CCOC(=O)c1sc(-c2cn(-c3ccccc3)nc2-c2ccccc2)nc1-c1ccc(Cl)cc1 |  |  |  | 0.22 mL | inactive | 87.23% | 17.3 mm | 80.18% | 87.6% | 0.15 mL | 0.24 mL | inactive | inactive | 0.22 mL | inactive | 87.23% | 50 mg/L (≈ 103 µM) |  |  |  | diameter of the inhibition zone (DIZ) (Bacillus subtilis [2]): inactive; diameter of the inhibition zone (DIZ) (Saccharomyces cerevisiae [13]): inactive; MIC (Bacillus subtilis [3]): inactive; MIC (Saccharomyces cerevisiae [15]): inactive
COc1ccc(-c2nc(-c3cn(-c4ccccc4)nc3-c3ccc(F)cc3)sc2C(=O)O)cc1 | 20.6 mm | 14.6 mm | 50 mg/L (≈ 106 µM) | 0.22 mL |  | 67.63% | 15.3 mm | 80.18% | 66.94% | 0.4 mL | 0.56 mL |  | inactive | 0.36 mL | inactive | 80.85% | 50 mg/L (≈ 106 µM) | 25 mg/L (≈ 53 µM) | 15.3 mm | 50 mg/L (≈ 106 µM) | 
CCOC(=O)c1sc(-c2cn(-c3ccccc3)nc2-c2ccc(Cl)cc2)nc1-c1ccc(F)cc1 | 12 mm | 13.3 mm | 50 mg/L (≈ 99.2 µM) | 0.18 mL |  | 71.09% | 17.6 mm | 83.78% | 61.15% | 0.47 mL | 0.5 mL |  | inactive | 0.19 mL | inactive | 89.89% | 50 mg/L (≈ 99.2 µM) | 50 mg/L (≈ 99.2 µM) |  |  | diameter of the inhibition zone (DIZ) (Saccharomyces cerevisiae [13]): inactive; MIC (Saccharomyces cerevisiae [15]): inactive
CCOC(=O)c1sc(-c2cn(-c3ccccc3)nc2-c2ccccc2)nc1-c1ccccc1 | 14.3 mm | 11 mm | 50 mg/L (≈ 111 µM) | 0.1 mL |  | 83.81% | 15.3 mm | 90.99% | 75.2% | 0.3 mL | 0.28 mL |  | inactive | 0.24 mL | inactive | 87.23% | 50 mg/L (≈ 111 µM) | 50 mg/L (≈ 111 µM) |  |  | diameter of the inhibition zone (DIZ) (Saccharomyces cerevisiae [13]): inactive; MIC (Saccharomyces cerevisiae [15]): inactive
COc1ccc2c(c1)c(CC(=O)O)c(C)n2C(=O)c1ccc(Cl)cc1 [INDOMETHACIN] |  |  |  |  |  |  |  |  |  |  |  |  |  |  |  |  |  |  |  |  | Activity (Rattus norvegicus [19]): 0.15 mL; Activity (Rattus norvegicus [20]): 0.14 mL; Activity (Rattus norvegicus [21]): 0.07 mL; Activity (Rattus norvegicus [22]): 91.32%; Activity (Rattus norvegicus [23]): 91.48%; Activity (Rattus norvegicus [24]): 93.69%; Activity (Rattus norvegicus [25]): 0.16 mL; Activity (Rattus norvegicus [26]): 88.42%
COc1ccc(-c2nc(-c3cn(-c4ccccc4)nc3-c3ccc(Cl)cc3)sc2C(=O)O)cc1 |  | 18.3 mm | 25 mg/L (≈ 51.2 µM) | 0.15 mL | inactive | 90.75% | 25.3 mm | 86.48% | 89.29% | 0.19 mL | 0.16 mL | inactive | inactive | 0.21 mL | inactive | 88.82% | 12.5 mg/L (≈ 25.6 µM) |  | 12 mm | 50 mg/L (≈ 102 µM) | 
COc1ccc(-c2nn(-c3ccccc3)cc2-c2nc(-c3ccc(OC)cc3)c(C(=O)O)s2)cc1 | 16.3 mm | 16.3 mm | 50 mg/L (≈ 103 µM) | 0.13 mL |  | 88.43% | 13 mm | 82.88% | 86.77% | 0.24 mL | 0.2 mL |  | inactive | 0.19 mL | inactive | 89.89% | 50 mg/L (≈ 103 µM) | 50 mg/L (≈ 103 µM) | 13.3 mm | 50 mg/L (≈ 103 µM) | 
O=C(O)c1sc(-c2cn(-c3ccccc3)nc2-c2ccc(Cl)cc2)nc1-c1ccc(Cl)cc1 |  | 16.6 mm | 50 mg/L (≈ 102 µM) | 0.26 mL | inactive | 75.14% | 23.6 mm | 76.57% | 80.99% | 0.23 mL | 0.43 mL | inactive | inactive | 0.28 mL | inactive | 85.1% | 12.5 mg/L (≈ 25.4 µM) |  | 24.6 mm | 12.5 mg/L (≈ 25.4 µM) | 
